This is an account of results in US4548946A, “Antiinflammatory and/or analgesic 1,8-Dihydro-(or 3,8-dihydro)-8-aryl-2-[(substituted)thio]-indeno[1,2-d]imidazoles and their corresponding sulfoxides and sulfones” (E. I. Du Pont de Nemours and Company, priority 1982, dated 1985).

For orientation: ED50 means the dose at which the effect has come halfway, by size or by number of responders.

Like-named read-outs stand apart in the source and are kept apart here.

Experiment [1] deals with adjuvant-induced arthritis. In words: Established adjuvant-induced arthritis in rats (paw volume). It counts as in vivo, Charles River Lewis male rats. To be noted: for ED50: read-out: Adjuvant Arthritic ED50; for Paw volume reduction at indicated daily dose (Adjuvant Arthritic): oral, daily dose 9 (mg/kg), 7 days, printed in the ED50 column, footnote 1.
Experiment [2] deals with writhing induced by phenylquinone. Description: Phenylquinone writhing test (analgesic activity). It counts as in vivo, female white mice. To be noted: read-out: Phenylquinone Writhing ED50. The protocol:
PHENYLQUINONE WRITHING TEST
A test compound suspended in 1% methylcellulose was given orally to fasted (17-21 hours) female white mice, 5-20 animals per double blind test. Aqueous (0.01% phenyl-p-benzoquinone)phenylquinone, 0.20 ml per mouse, was injected intraperitoneally 6 minutes before observations were begun.

The mark [3] stands for this setting: rat, oral gavage daily for 7 days, ED50% decrease from control paw volume, uninjected left hind paw, one day after last dose.
Where [4] appears, read: mouse, oral, fasted 17-21 hours, effective analgesic dose for 50% of the mice.

Take `O=S(=O)(c1nc2c([nH]1)C(c1ccccc1)c1ccccc1-2)C(F)(F)F` (stereo not drawn) [Example 4, 1,8-Dihydro(or 3,8-dihydro)-2-[(trifluoromethyl)sulfonyl]-8-phenyl-indeno[1,2-d]imidazole]: the ED50 in experiment [1] (setting [3]) is 1.35 mg/kg; in experiment [2] (setting [4]), 0.04 mg/kg.

`CC(=O)Oc1ccccc1C(=O)O` [Aspirin, reference compound]: the 50% effective dose (ED50) in experiment [1] (Rattus norvegicus, po) is 305 mg/kg; in experiment [2] (Mus musculus, po) it was 135 mg/kg.

Take `CCCCC1C(=O)N(c2ccccc2)N(c2ccccc2)C1=O` [Phenylbutazone, phenylbutazone, reference compound]: the median effective dose (ED50) in experiment [1] (setting [3]) was found to be 10 mg/kg; in experiment [2] (setting [4]), 80 mg/kg.

On to `Cc1ccc2c(c1)-c1nc(SC(F)(F)C(F)F)[nH]c1C2c1ccccc1` (stereo not drawn) [Example 15], for which the median effective dose (ED50) in experiment [1] (setting [3]) is 3.6 mg/kg; in experiment [2] (setting [4]), 5 mg/kg.

As for `FC(F)(F)Sc1nc2c([nH]1)C(c1ccc(Cl)c(Cl)c1)c1ccccc1-2` (stereo not drawn) [Example 10], the “Paw volume reduction at indicated daily dose (Adjuvant Arthritic)” value in experiment [1] (rat) turned out to be 44%. For the same molecule, the median effective dose (ED50) in experiment [2] (setting [4]) is 1.3 mg/kg.

On to `O=S(=O)(c1nc2c([nH]1)C(c1ccccc1)c1ccccc1-2)C(F)(F)C(F)F` (stereo not drawn) [Example 2, 1,8-Dihydro(or 3,8-dihydro)-2-[(1,1,2,2-tetrafluoroethyl)sulfonyl]-8-phenyl-indeno[1,2-d]imidazole], for which the ED50 amounted to 0.2 mg/kg in experiment [1] (setting [3]) and 0.04 mg/kg in experiment [2] (setting [4]).

For `FC(F)C(F)(F)Sc1nc2c([nH]1)C(c1ccccc1)c1ccccc1-2` (stereo not drawn) [Example 1, 1,8-Dihydro(or 3,8-dihydro)-2-[(1,1,2,2-tetrafluoroethyl)thio]-8-phenyl-indeno[1,2-d]imidazole], the median effective dose (ED50) in experiment [1] (setting [3]) is 0.79 mg/kg; in experiment [2] (setting [4]) it was 0.16 mg/kg.

`COc1ccc(C2c3ccccc3-c3nc(SC(F)(F)F)[nH]c32)cc1` (stereo not drawn) [Example 13]: the median effective dose (ED50) in experiment [1] (setting [3]) was found to be 3.2 mg/kg; in experiment [2] (setting [4]), 0.147 mg/kg.

For `Fc1ccc(C2c3ccccc3-c3nc(SC(F)(F)F)[nH]c32)cc1` (stereo not drawn) [Example 17], the figures for the ED50 in experiment [1] (setting [3]) and in experiment [2] (setting [4]) were 2.4 mg/kg and 0.14 mg/kg, respectively.

In the case of `CSc1nc2c([nH]1)C(c1ccccc1)c1ccccc1-2` (stereo not drawn) [Example 6, 1,8-Dihydro(or 3,8-dihydro)-2-(methylthio)-8-phenyl-indeno[1,2-d]imidazole], the ED50 is 50 mg/kg in experiment [1] (setting [3]) and 27 mg/kg in experiment [2] (setting [4]).

For `COc1ccc2c(c1)C(c1ccccc1)c1[nH]c(SC(F)(F)F)nc1-2` (stereo not drawn) [Example 8], the ED50 in experiment [1] (setting [3]) amounted to 10.5 mg/kg; in experiment [2] (setting [4]), 2.4 mg/kg.

Take `FC(F)(F)Sc1nc2c([nH]1)C(c1ccccc1)c1ccccc1-2` (stereo not drawn) [Example 3, 1,8-Dihydro(or 3,8-dihydro)-2-[(trifluoromethyl)thio]-8-phenyl-indeno[1,2-d]imidazole]: the ED50 is 1.1 mg/kg in experiment [1] (setting [3]) and 0.26 mg/kg in experiment [2] (setting [4]).

Turning to `CS(=O)(=O)c1nc2c([nH]1)C(c1ccccc1)c1ccccc1-2` (stereo not drawn) [Example 7, 1,8-Dihydro(or 3,8-dihydro)-2-(methylsulfonyl)-8-phenyl-indeno[1,2]-dimidazole], the 50% effective dose (ED50) in experiment [1] (setting [3]) turned out to be 19 mg/kg; in experiment [2] (setting [4]), 14 mg/kg.

Consider `CCSc1nc2c([nH]1)C(c1ccccc1)c1ccccc1-2` (stereo not drawn) [Example 11], for which the ED50 in experiment [1] (setting [3]) and in experiment [2] (setting [4]) was 14 mg/kg each time.

Take `COc1ccc(C2c3ccccc3-c3nc(S(=O)(=O)C(F)(F)F)[nH]c32)cc1` (stereo not drawn) [Example 14]: the ED50 in experiment [1] (setting [3]) worked out at 0.5 mg/kg; in experiment [2] (setting [4]) it was 0.2 mg/kg.

On to `Cc1ccc2c(c1)-c1nc(S(=O)(=O)C(F)(F)C(F)F)[nH]c1C2c1ccccc1` (stereo not drawn) [Example 16], for which the “Paw volume reduction at indicated daily dose (Adjuvant Arthritic)” value in experiment [1] (rat) is 39%. For the same molecule, in experiment [2] (setting [4]), the median effective dose (ED50) turned out to be 0.064 mg/kg.

As for `[O-][S+](c1nc2c([nH]1)C(c1ccccc1)c1ccccc1-2)C(F)(F)F` (stereo not drawn) [Example 5, 1,8-Dihydro(or 3,8-dihydro)-2-[(trifluoromethyl)sulfinyl]-8-phenyl-indeno[1,2-d]imidazole], the ED50 stood at 0.62 mg/kg in experiment [1] (setting [3]) and 0.057 mg/kg in experiment [2] (setting [4]).

`COc1cccc2c1-c1nc(SC(F)(F)F)[nH]c1C2c1ccccc1` (stereo not drawn) [Example 9]: the 50% effective dose (ED50) in experiment [1] (setting [3]) is over 9 mg/kg; in experiment [2] (setting [4]), 8.3 mg/kg.

With `CC(C)Cc1ccc(C(C)C(=O)O)cc1` (stereo not drawn) [Ibuprofen, reference compound], the 50% effective dose (ED50) was 100 mg/kg in experiment [1] (setting [3]) and 10 mg/kg in experiment [2] (setting [4]).

As for `CCCCSc1nc2c([nH]1)C(c1ccccc1)c1ccccc1-2` (stereo not drawn) [Example 12], the ED50 in experiment [1] (setting [3]) is over 27 mg/kg; in experiment [2] (setting [4]) it was 65 mg/kg.

For the molecule `COc1ccc2c(c1)c(CC(=O)O)c(C)n2C(=O)c1ccc(Cl)cc1` [Indomethacin, reference compound], the median effective dose (ED50) stood at 0.3 mg/kg in experiment [1] (Rattus norvegicus, po) and 0.35 mg/kg in experiment [2] (Mus musculus, po).
